Measured values published in the kinase profiling compilation of Christmann-Franck et al. (2016).

What was measured:
Assay in all cases: radiometric filter-binding kinase assay, Kinase HotSpot
Details in all cases: compound 0.5 µM; ATP 10 µM
CAMK1 (human) = CAMK1 (human) (UniProt Q14012)
GRK6 (human) = GRK6 (human) (UniProt P43250)
MAPK8 (human) = MAPK8 (human) (UniProt P45983)
MAPK1 (human) = MAPK1 (human) (UniProt P28482)
CSNK2A1 (human) = CSNK2A1 (human) (UniProt P68400)
CAMK1G (human) = CAMK1G (human) (UniProt Q96NX5)
CDK5 CDK5R1 p25 (human) = CDK5 CDK5R1 p25 (human) (UniProt Q00535+Q15078)
NEK4 (human) = NEK4 (human) (UniProt P51957)
MARK2 (human) = MARK2 (human) (UniProt Q7KZI7)
RPS6KB1 (human) = RPS6KB1 (human) (UniProt P23443)
EPHA7 (human) = EPHA7 (human) (UniProt Q15375)
NEK6 (human) = NEK6 (human) (UniProt Q9HC98)
EPHA1 (human) = EPHA1 (human) (UniProt P21709)
NEK7 (human) = NEK7 (human) (UniProt Q8TDX7)
EPHA2 (human) = EPHA2 (human) (UniProt P29317)
SYK (human) = SYK (human) (UniProt P43405)
ULK2 (human) = ULK2 (human) (UniProt Q8IYT8)
CHUK (human) = CHUK (human) (UniProt O15111)
PRKCI (human) = PRKCI (human) (UniProt P41743)
MYO3B (human) = MYO3B (human) (UniProt Q8WXR4)
BRSK1 (human) = BRSK1 (human) (UniProt Q8TDC3)
SRMS (human) = SRMS (human) (UniProt Q9H3Y6)
PTK6 (human) = PTK6 (human) (UniProt Q13882)
HIPK2 (human) = HIPK2 (human) (UniProt Q9H2X6)
IRAK1 (human) = IRAK1 (human) (UniProt P51617)
CSNK1G1 (human) = CSNK1G1 (human) (UniProt Q9HCP0)
NEK3 (human) = NEK3 (human) (UniProt P51956)
HIPK1 (human) = HIPK1 (human) (UniProt Q86Z02)
MST1R (human) = MST1R (human) (UniProt Q04912)
MAP3K5 (human) = MAP3K5 (human) (UniProt Q99683)
DAPK1 (human) = DAPK1 (human) (UniProt P53355)
TAOK1 (human) = TAOK1 (human) (UniProt Q7L7X3)
CAMK2D (human) = CAMK2D (human) (UniProt Q13557)
PRKD2 (human) = PRKD2 (human) (UniProt Q9BZL6)
DDR2 (human) = DDR2 (human) (UniProt Q16832)
EPHA3 (human) = EPHA3 (human) (UniProt P29320)
PRKCB1 (human) = PRKCB1 (human) (UniProt P05771)
EPHB1 (human) = EPHB1 (human) (UniProt P54762)
FER (human) = FER (human) (UniProt P16591)
STK25 (human) = STK25 (human) (UniProt O00506)
ACVR1 (human) = ACVR1 (human) (UniProt Q04771)
LTK (human) = LTK (human) (UniProt P29376)

BRSK1 (human), sequence (Q8TDC3 whole entry, looked up): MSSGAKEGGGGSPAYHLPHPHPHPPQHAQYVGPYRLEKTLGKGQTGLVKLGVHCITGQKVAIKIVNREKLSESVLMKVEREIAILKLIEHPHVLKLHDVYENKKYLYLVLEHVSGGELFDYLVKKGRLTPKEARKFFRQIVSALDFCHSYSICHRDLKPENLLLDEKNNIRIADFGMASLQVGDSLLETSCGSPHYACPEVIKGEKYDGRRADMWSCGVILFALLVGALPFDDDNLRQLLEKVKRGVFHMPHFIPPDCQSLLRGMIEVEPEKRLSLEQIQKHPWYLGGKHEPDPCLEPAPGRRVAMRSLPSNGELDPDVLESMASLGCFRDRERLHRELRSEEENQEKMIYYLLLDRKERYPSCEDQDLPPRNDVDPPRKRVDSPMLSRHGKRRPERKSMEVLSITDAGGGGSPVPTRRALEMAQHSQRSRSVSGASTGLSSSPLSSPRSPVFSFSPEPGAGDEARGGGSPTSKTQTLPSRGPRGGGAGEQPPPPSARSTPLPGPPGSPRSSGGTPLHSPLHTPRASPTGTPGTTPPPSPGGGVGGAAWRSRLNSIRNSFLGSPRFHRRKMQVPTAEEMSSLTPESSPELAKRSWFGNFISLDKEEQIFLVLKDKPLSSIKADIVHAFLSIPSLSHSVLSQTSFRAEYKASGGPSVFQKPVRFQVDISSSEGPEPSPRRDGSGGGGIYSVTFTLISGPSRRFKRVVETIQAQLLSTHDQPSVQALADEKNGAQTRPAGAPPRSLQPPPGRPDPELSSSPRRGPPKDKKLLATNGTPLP
NEK3 (human), sequence (P51956 whole entry, looked up): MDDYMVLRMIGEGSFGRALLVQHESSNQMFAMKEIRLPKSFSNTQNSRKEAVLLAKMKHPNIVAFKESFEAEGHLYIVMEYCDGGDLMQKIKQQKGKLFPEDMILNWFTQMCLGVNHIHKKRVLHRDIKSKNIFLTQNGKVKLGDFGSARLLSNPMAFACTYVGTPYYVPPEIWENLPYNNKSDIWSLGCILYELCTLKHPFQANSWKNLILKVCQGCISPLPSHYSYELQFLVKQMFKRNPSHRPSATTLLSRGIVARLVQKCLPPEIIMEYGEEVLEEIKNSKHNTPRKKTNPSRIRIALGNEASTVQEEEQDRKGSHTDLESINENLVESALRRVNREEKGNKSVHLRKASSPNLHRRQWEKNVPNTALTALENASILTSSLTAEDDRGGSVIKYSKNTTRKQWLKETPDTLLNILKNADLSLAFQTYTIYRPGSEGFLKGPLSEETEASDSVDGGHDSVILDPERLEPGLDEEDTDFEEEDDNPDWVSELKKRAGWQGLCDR
HIPK2 (human), sequence (Q9H2X6 whole entry, looked up): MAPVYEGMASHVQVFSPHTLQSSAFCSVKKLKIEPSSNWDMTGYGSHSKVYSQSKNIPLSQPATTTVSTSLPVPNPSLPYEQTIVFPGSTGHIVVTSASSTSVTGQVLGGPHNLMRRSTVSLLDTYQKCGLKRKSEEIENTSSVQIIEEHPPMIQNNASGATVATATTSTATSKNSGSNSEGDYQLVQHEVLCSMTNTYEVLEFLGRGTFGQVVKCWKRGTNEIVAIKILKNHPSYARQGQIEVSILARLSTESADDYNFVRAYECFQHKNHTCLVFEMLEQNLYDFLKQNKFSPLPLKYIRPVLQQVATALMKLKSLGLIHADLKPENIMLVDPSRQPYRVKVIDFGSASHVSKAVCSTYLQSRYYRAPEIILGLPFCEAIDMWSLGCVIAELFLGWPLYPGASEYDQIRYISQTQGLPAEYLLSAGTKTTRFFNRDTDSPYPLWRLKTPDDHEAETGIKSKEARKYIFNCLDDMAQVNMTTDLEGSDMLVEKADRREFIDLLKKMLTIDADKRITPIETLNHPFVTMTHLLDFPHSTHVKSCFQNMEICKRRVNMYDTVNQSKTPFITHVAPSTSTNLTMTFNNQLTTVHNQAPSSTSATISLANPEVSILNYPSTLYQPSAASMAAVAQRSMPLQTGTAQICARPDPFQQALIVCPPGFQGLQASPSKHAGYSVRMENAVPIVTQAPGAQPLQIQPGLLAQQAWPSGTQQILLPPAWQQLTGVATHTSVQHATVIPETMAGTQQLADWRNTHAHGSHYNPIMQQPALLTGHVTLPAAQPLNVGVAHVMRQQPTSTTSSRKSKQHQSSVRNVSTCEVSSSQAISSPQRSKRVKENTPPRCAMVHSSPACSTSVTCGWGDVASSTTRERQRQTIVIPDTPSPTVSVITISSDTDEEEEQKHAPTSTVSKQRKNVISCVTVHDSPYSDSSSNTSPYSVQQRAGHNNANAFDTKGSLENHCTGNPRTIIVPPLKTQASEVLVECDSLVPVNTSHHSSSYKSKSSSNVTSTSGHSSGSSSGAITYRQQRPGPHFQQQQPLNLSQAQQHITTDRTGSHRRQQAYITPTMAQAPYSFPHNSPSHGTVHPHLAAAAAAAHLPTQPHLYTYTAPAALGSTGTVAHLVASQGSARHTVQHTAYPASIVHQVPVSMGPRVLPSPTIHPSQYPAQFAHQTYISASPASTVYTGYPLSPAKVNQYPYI
MARK2 (human), sequence (Q7KZI7 whole entry, looked up): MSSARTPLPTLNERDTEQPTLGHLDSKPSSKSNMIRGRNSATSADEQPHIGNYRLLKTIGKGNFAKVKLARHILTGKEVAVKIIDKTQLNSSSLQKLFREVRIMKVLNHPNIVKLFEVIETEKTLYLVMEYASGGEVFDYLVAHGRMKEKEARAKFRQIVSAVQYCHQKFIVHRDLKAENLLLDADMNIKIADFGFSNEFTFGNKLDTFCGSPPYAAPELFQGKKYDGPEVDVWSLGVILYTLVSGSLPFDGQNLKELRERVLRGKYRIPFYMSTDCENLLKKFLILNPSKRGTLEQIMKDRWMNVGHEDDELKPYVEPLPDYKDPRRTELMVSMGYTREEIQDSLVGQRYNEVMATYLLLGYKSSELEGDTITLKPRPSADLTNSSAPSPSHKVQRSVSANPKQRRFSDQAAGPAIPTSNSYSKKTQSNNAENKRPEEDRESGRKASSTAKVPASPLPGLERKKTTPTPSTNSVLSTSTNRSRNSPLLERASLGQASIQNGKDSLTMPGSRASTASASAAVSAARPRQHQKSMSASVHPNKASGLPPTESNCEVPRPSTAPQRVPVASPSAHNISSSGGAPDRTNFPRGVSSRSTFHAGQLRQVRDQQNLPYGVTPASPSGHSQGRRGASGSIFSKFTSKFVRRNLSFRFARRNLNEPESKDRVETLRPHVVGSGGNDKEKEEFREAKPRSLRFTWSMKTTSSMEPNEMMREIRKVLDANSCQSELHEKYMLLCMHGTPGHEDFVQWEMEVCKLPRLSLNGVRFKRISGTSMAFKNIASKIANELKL
DDR2 (human), sequence (Q16832 whole entry, looked up): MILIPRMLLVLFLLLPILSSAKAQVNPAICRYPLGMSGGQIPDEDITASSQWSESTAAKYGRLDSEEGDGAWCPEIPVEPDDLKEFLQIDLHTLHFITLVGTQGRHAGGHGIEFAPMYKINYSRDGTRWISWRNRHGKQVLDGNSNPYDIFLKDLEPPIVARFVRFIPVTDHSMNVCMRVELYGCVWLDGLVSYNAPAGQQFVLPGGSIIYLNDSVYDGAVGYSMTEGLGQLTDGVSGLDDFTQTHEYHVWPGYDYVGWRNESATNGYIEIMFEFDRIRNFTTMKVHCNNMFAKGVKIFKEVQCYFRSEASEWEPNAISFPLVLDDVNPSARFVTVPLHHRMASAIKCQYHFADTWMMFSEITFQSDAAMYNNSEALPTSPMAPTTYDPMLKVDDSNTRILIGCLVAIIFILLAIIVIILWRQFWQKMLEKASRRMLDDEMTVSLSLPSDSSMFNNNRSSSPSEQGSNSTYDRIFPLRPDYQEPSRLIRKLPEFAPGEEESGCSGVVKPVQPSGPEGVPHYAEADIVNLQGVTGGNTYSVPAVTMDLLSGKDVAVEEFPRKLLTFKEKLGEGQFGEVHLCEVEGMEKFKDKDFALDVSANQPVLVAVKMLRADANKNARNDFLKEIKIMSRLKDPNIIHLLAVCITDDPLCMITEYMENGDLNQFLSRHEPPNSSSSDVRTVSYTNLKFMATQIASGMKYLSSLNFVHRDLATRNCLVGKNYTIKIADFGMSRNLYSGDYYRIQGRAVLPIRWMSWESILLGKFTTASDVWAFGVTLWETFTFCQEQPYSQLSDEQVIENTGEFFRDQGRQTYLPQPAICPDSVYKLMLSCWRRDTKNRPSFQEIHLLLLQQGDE
PRKD2 (human), sequence (Q9BZL6 whole entry, looked up): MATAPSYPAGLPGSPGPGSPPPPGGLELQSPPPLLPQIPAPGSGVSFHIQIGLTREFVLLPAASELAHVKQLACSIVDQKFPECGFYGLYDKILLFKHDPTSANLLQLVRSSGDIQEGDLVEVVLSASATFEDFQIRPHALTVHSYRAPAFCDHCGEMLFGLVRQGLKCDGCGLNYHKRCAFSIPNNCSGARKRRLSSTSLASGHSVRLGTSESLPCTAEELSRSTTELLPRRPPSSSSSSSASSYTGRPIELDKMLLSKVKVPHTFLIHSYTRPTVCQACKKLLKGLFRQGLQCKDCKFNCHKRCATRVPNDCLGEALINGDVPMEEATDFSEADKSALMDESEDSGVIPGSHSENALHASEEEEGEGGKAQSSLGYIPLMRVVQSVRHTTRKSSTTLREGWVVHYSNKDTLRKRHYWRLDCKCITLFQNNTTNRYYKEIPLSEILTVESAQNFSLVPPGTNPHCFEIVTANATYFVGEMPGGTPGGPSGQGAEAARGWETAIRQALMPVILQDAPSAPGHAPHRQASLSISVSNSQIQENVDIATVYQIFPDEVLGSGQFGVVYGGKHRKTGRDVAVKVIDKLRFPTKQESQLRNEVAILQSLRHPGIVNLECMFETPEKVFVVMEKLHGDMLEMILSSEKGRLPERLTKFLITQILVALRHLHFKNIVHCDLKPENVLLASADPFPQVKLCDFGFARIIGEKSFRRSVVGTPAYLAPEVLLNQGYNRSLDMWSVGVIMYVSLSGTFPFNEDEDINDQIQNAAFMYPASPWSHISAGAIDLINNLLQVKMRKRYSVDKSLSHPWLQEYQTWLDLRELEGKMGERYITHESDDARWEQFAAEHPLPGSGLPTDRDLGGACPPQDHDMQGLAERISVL

With `N#CC(C#N)=C(N)/C(C#N)=C/c1ccc(O)cc1` the residual activity (CAMK1 (human)) was 97.2%, the residual activity (GRK6 (human)) was 107% and the residual activity (MAPK8 (human)) was 100%. The residual activity (MAPK1 (human)) was 101%, the residual activity (CSNK2A1 (human)) was 104% and the residual activity (CAMK1G (human)) was 104%. For the same compound, the residual activity (CDK5 CDK5R1 p25 (human)) was 97.6%, the residual activity (NEK4 (human)) was 93.3% and the residual activity (MARK2 (human)) was 91.3%. For the same compound, the residual activity (RPS6KB1 (human)) was 89.5%, the residual activity (EPHA7 (human)) was 90.5% and the residual activity (NEK6 (human)) was 97.3%. It also gave a residual activity (EPHA1 (human)) of 103%, a residual activity (NEK7 (human)) of 98.9% and a residual activity (EPHA2 (human)) of 100%. For the same compound, the residual activity (SYK (human)) was 101%, the residual activity (ULK2 (human)) was 105% and the residual activity (CHUK (human)) was 94%. For the same compound, the residual activity (PRKCI (human)) was 97.4%, the residual activity (MYO3B (human)) was 88.1% and the residual activity (BRSK1 (human)) was 99.2%. For the same compound, the residual activity (SRMS (human)) was 107%, the residual activity (PTK6 (human)) was 84.9% and the residual activity (HIPK2 (human)) was 102%. It also gave a residual activity (IRAK1 (human)) of 123%, a residual activity (CSNK1G1 (human)) of 93.4% and a residual activity (NEK3 (human)) of 98%. For the same compound, the residual activity (HIPK1 (human)) was 103%, the residual activity (MST1R (human)) was 102% and the residual activity (MAP3K5 (human)) was 103%. It also gave a residual activity (DAPK1 (human)) of 92.7%, a residual activity (TAOK1 (human)) of 93.2% and a residual activity (CAMK2D (human)) of 91.1%. It also gave a residual activity (PRKD2 (human)) of 100%, a residual activity (DDR2 (human)) of 97.6% and a residual activity (EPHA3 (human)) of 98.3%. It also gave a residual activity (PRKCB1 (human)) of 114%, a residual activity (EPHB1 (human)) of 88.3% and a residual activity (FER (human)) of 91.1%. For the same compound, the residual activity (STK25 (human)) was 90.4%, the residual activity (ACVR1 (human)) was 93.8% and the residual activity (LTK (human)) was 92.5%.

Compound `CCC(=O)Nc1ccc2ncnc(Nc3cccc(Br)c3)c2c1` has a residual activity (CAMK1 (human)) of 88.9%, a residual activity (GRK6 (human)) of 97.6% and a residual activity (MAPK8 (human)) of 73.7%. For the same compound, the residual activity (MAPK1 (human)) was 77.7%, the residual activity (CSNK2A1 (human)) was 99% and the residual activity (CAMK1G (human)) was 92.1%. The residual activity (CDK5 CDK5R1 p25 (human)) was 78.4%, the residual activity (NEK4 (human)) was 94.7% and the residual activity (MARK2 (human)) was 73.5%. The residual activity (RPS6KB1 (human)) was 91.2%, the residual activity (EPHA7 (human)) was 102% and the residual activity (NEK6 (human)) was 105%. The residual activity (EPHA1 (human)) was 89.5%, the residual activity (NEK7 (human)) was 92.7% and the residual activity (EPHA2 (human)) was 101%. It also gave a residual activity (SYK (human)) of 94.3%, a residual activity (ULK2 (human)) of 118% and a residual activity (CHUK (human)) of 99.3%. For the same compound, the residual activity (PRKCI (human)) was 106%, the residual activity (MYO3B (human)) was 135% and the residual activity (BRSK1 (human)) was 83.3%. It also gave a residual activity (SRMS (human)) of 99.4%, a residual activity (PTK6 (human)) of 57.2% and a residual activity (HIPK2 (human)) of 97%. The residual activity (IRAK1 (human)) was 92.7%, the residual activity (CSNK1G1 (human)) was 98.6% and the residual activity (NEK3 (human)) was 99.6%. The residual activity (HIPK1 (human)) was 104%, the residual activity (MST1R (human)) was 97.2% and the residual activity (MAP3K5 (human)) was 102%. It also gave a residual activity (DAPK1 (human)) of 99.4%, a residual activity (TAOK1 (human)) of 79.1% and a residual activity (CAMK2D (human)) of 113%. It also gave a residual activity (PRKD2 (human)) of 85.1%, a residual activity (DDR2 (human)) of 109% and a residual activity (EPHA3 (human)) of 106%. The residual activity (PRKCB1 (human)) was 99.2%, the residual activity (EPHB1 (human)) was 93.3% and the residual activity (FER (human)) was 95.6%. For the same compound, the residual activity (STK25 (human)) was 102%, the residual activity (ACVR1 (human)) was 93.7% and the residual activity (LTK (human)) was 81%.

In the case of `Nc1ccc2ncnc(NCCc3ccc(Oc4ccccc4)cc3)c2c1`, the residual activity (CAMK1 (human)) is reported as 107%, the residual activity (GRK6 (human)) is reported as 99.3% and the residual activity (MAPK8 (human)) is reported as 104%. For the same compound, the residual activity (MAPK1 (human)) was 90.1%, the residual activity (CSNK2A1 (human)) was 95.2% and the residual activity (CAMK1G (human)) was 102%. The residual activity (CDK5 CDK5R1 p25 (human)) was 90.6%, the residual activity (NEK4 (human)) was 97.8% and the residual activity (MARK2 (human)) was 84.9%. The residual activity (RPS6KB1 (human)) was 99.5%, the residual activity (EPHA7 (human)) was 104% and the residual activity (NEK6 (human)) was 103%. The residual activity (EPHA1 (human)) was 86.6%, the residual activity (NEK7 (human)) was 96% and the residual activity (EPHA2 (human)) was 103%. For the same compound, the residual activity (SYK (human)) was 102%, the residual activity (ULK2 (human)) was 103% and the residual activity (CHUK (human)) was 101%. For the same compound, the residual activity (PRKCI (human)) was 103%, the residual activity (MYO3B (human)) was 96.6% and the residual activity (BRSK1 (human)) was 101%. The residual activity (SRMS (human)) was 99.2%, the residual activity (PTK6 (human)) was 93.3% and the residual activity (HIPK2 (human)) was 110%. The residual activity (IRAK1 (human)) was 107%, the residual activity (CSNK1G1 (human)) was 97.6% and the residual activity (NEK3 (human)) was 108%. It also gave a residual activity (HIPK1 (human)) of 104%, a residual activity (MST1R (human)) of 97.2% and a residual activity (MAP3K5 (human)) of 105%. It also gave a residual activity (DAPK1 (human)) of 110%, a residual activity (TAOK1 (human)) of 84.2% and a residual activity (CAMK2D (human)) of 98.9%. For the same compound, the residual activity (PRKD2 (human)) was 98.2%, the residual activity (DDR2 (human)) was 96.8% and the residual activity (EPHA3 (human)) was 102%. For the same compound, the residual activity (PRKCB1 (human)) was 96.3%, the residual activity (EPHB1 (human)) was 97.9% and the residual activity (FER (human)) was 99.5%. It also gave a residual activity (STK25 (human)) of 116%, a residual activity (ACVR1 (human)) of 91.8% and a residual activity (LTK (human)) of 106%.

`CCCC(=O)Oc1ccc2[nH]c(C(=O)c3cc4ccccc4[nH]3)cc2c1` showed a residual activity (CAMK1 (human)) of 98.8%, a residual activity (GRK6 (human)) of 95.8% and a residual activity (MAPK8 (human)) of 84%. For the same compound, the residual activity (MAPK1 (human)) was 105%, the residual activity (CSNK2A1 (human)) was 99.8% and the residual activity (CAMK1G (human)) was 100%. The residual activity (CDK5 CDK5R1 p25 (human)) was 90.1%, the residual activity (NEK4 (human)) was 96.4% and the residual activity (MARK2 (human)) was 83.1%. It also gave a residual activity (RPS6KB1 (human)) of 94.5%, a residual activity (EPHA7 (human)) of 97.2% and a residual activity (NEK6 (human)) of 101%. It also gave a residual activity (EPHA1 (human)) of 88.8%, a residual activity (NEK7 (human)) of 95.5% and a residual activity (EPHA2 (human)) of 99%. For the same compound, the residual activity (SYK (human)) was 93.9%, the residual activity (ULK2 (human)) was 98.3% and the residual activity (CHUK (human)) was 94.5%. It also gave a residual activity (PRKCI (human)) of 99.2%, a residual activity (MYO3B (human)) of 98.6% and a residual activity (BRSK1 (human)) of 99.5%. For the same compound, the residual activity (SRMS (human)) was 104%, the residual activity (PTK6 (human)) was 85.4% and the residual activity (HIPK2 (human)) was 92.1%. It also gave a residual activity (IRAK1 (human)) of 90.5%, a residual activity (CSNK1G1 (human)) of 76.1% and a residual activity (NEK3 (human)) of 95.5%. The residual activity (HIPK1 (human)) was 101%, the residual activity (MST1R (human)) was 103% and the residual activity (MAP3K5 (human)) was 103%. The residual activity (DAPK1 (human)) was 85.8%, the residual activity (TAOK1 (human)) was 82.8% and the residual activity (CAMK2D (human)) was 111%. The residual activity (PRKD2 (human)) was 91.7%, the residual activity (DDR2 (human)) was 89.9% and the residual activity (EPHA3 (human)) was 96.8%. For the same compound, the residual activity (PRKCB1 (human)) was 97.3%, the residual activity (EPHB1 (human)) was 92.1% and the residual activity (FER (human)) was 101%. The residual activity (STK25 (human)) was 94.5%, the residual activity (ACVR1 (human)) was 100% and the residual activity (LTK (human)) was 87.5%.
